Experimental data published in PMC11650737, “Developing MYC Degraders Bearing the Von Hippel–Lindau Ligand to Target the “Undruggable” MYC” (ACS Pharmacology & Translational Science, 2024).
Where “and” joins values, the source holds several entries; their conditions need not be identical. Equal entries are not always repeated.

Tests used:
[1] = system: PC3 cells; assay: Cell viability (MTT) assay, PC3; assay type: cell-based, human; conditions: Homo sapiens, PC-3, 72 h, read-out: IC50 (antiproliferative effect)
Method: The antiproliferative activity of the synthesized compounds was tested in cell viability assays optimally set up for various cancer cell lines (results are depicted in Table 2, n = 3, average IC50 (μM) ± SD).
Cells were plated at a density of 5 × 10^3 cells per well on 96-well plates. After 24 h of incubation (37 °C, 5% CO2), the cell medium was removed, and compounds were added at selected concentrations (0.1–100 μM), followed by incubation for 72 h. Control cells were treated with 0.4% DMSO medium to match the conditions in the wells where drugs were added. After 72 h, the medium was removed, and the 3-(4,5-dimethylthiazol-2-yl)-2,5-diphenyltetrazolium bromide (MTT) solution (0.3 mg/mL in PBS) was added to cells for 3 h under no light conditions. The MTT solution was removed, and the formazan crystals were dissolved in 100 μL of DMSO. The optical density was measured at 570 nm with a reference wavelength of 690 nm using an absorbance microplate reader (SpectraMax 190, Molecular Devices, Sunnyvale, CA, USA). The half-maximal inhibitory concentration (IC50) was calculated based on a four-parameter logistic equation, generating a cell viability curve, using GraphPad Prism 6.01 (GraphPad Software, Inc.). Two concentrations of an established drug, Docetaxel (100 nM and 1 nM), were used in each experiment as a positive control. The resulting absorbance values were used instead of IC50 calculation. Each point was the result of three independent experiments performed in triplicate.

[2] = Pharmacokinetic study in mice; assay type: in vivo, mice (male C57BL/6J); conditions: for adverse effects during the study / level in blood circulation 24 h after treatment / AUCs: i.p.; for adverse effects during the study: 10 mg/kg single dose; for level in blood circulation 24 h after treatment / AUCs / concentration at 8 h / Cmax / Tmax / half-life: 10 mg/kg; for AUCs / Cmax / Tmax: blood; for concentration at 8 h / Cmax / Tmax / half-life: male, C57BL/6J, mouse, whole blood; for concentration at 8 h: read-out: average blood concentration 8 h after administration; for half-life: noncompartmental analysis, read-out: T ½ (converted)
Method: In order to assess the efficacy potential of MYC degraders in animal models, pharmacokinetic studies were carried out in mice (Figure 6A,B). Following intraperitoneal (i.p.) administration of selected compounds, CSI86, CSI135, and CSI107 at 10 mg/kg, blood samples were collected at different time points until 24 h post-drug administration, and concentrations were determined via LC-MS/MS.
Animals that were used for the study were male C57BL/6J (n = 7) at the age of 6–8 weeks (average weight = 20–25 g). Each PROTAC was administered at 10 mg/kg, and the dosing volume per animal was 200 μL. The vehicle for CSI86, CSI107, and […], respectively, was corn oil/10% DMSO, and the administration was i.p. CSI86 was also administered PO at the same dose using 0.5% carboxymethyl cellulose (CMC) as a vehicle in water. Whole blood from two control mice was used for the preparation of standard solutions.
A serial tail bleeding protocol was performed for the collection of blood samples. Blood samples (10 μL) were collected at selected time points (15 min, 30 min, 1 h, 2 h, 4 h, 6 h, 8 h, and 24 h) in tubes containing 40 μL of sodium citrate (0.1 M, pH 4.5) and stored at −80 °C until the day of the analysis.
For the calculation of T1/2, a noncompartmental pharmacokinetics analysis was used via the online application “Dash App Gallery Pharmacokinetics Calculator.” […]
Characterization and Quantitative Analysis of PROTACs by Liquid Chromatography-Mass Spectrometry […]
For detection and quantification of the PROTACs in medium and biological samples, LC-MS/MS methodologies were developed. Mass spectrometry was performed on a Triple Quad 5500 + LC-MS/MS system fitted with a TurboIonSpray source and a hybrid triple quadrupole/linear ion trap mass spectrometer. HPLC was performed using an Exion LC AB Sciex system with a temperature-controlled column compartment and an autosampler. A C8 column (SunFire 2.1 x 50 mm, 3.5 μm) (Waters, MA, USA) was used at a flow rate of 0.3 mL/min for the separation of the analytes of interest. The mobile phase consisted of A: 10% ACN, 90% water, 2 mM ammonium acetate, and 0.1% FA and B: 90% ACN, 10% water, 2 mM ammonium acetate, and 0.1% FA, the injection volume was 10 μL. Elution of CSI86 PROTAC was achieved by a gradient of solvent A – solvent B described as follows: 100% A (0.0 - 0.5 min), 20% A (1.0 – […]
3.0 min), 100% A (3.1 – 5.1 min).
1040.5, for the CSI86 PROTAC with exact mass of 1039 (g/mol). Elution of CSI107 PROTAC was achieved by a gradient of solvent A – solvent B described as follows: 80% A (0.0 - 0.5 min), 15% A (1.5 – 3.5 min), […]
the CSI107 PROTAC with an exact mass of 1053 (g/mol).
Table S1: Optimized parameters for the LC-MS/MS analysis. […]
Detection protein degraders in mouse blood by LC-MS/MS analysis
For the LC-MS/MS analysis of the PK study, sample preparation was performed as follows.
Double Blank Blank + IS Standards
50 μL blood 50 μL blood 50 μL blood
10 μL ACN: H 2O 10 μL ACN: H 2O 10 μL std
300 μL of cold ACN were added in all samples for protein precipitation, followed by centrifugation at 13000 rpm for 10 min. The supernatant was transferred in glass tubes and evaporated at 55 °C for approximately 1 h. The samples were reconstituted in Mobile Phase A (90% H2O-10% ACN, 0.1% FA, 2 mM ammonium acetate) and the circulating amount of PROTAC was determined by LC-MS/MS analysis using a stable internal standard such as Warfarin or BETd-260 respectively. Gradient (20% A – 80% B) LC-MS/MS conditions were applied and the concentration range for the standard curve was 1 - 10.000 ng/mL. […]

**Q.** Which IC50 [1] does the source give for `Cc1ncsc1-c1ccc(CNC(=O)[C@@H]2C[C@@H](O)CN2C(=O)[C@@H](NC(=O)CCC(=O)NCCCOc2ccc(-c3cc(C(F)(F)F)nn3C)c(O)c2-c2cc(C(F)(F)F)cc(C(F)(F)F)c2)C(C)(C)C)cc1` [CSI86] here?
**A.** 18 ± 7 µM

**Q.** What about the “adverse effects during the study” value [2] of the same compound?
**A.** no adverse effects were reported

**Q.** What about the “level in blood circulation 24 h after treatment” value [2] of the same compound?
**A.** evident levels of the degrader being present in blood circulation

**Q.** What about the AUCs [2] of the same compound?
**A.** 8,4 h x μg/mL

**Q.** And the concentration at 8 h ([2]; ip)?
**A.** ~500 ng/mL and ~480 nM

**Q.** And the Cmax ([2]; ip)?
**A.** 713 ng/mL and 686 nM

**Q.** What about the Tmax ([2]; ip) of the same compound?
**A.** 2 h

**Q.** What about the half-life ([2]; ip) of the same compound?
**A.** 7.4 h

**Q.** And the Cmax ([2]; oral gavage (PO))?
**A.** < 100 ng/mL

**Q.** Which results are given for `Cc1ncsc1-c1ccc(CNC(=O)[C@@H]2C[C@@H](O)CN2C(=O)[C@@H](NC(=O)CCCC(=O)NCCCOc2ccc(-c3cc(C(F)(F)F)nn3C)c(O)c2-c2cc(C(F)(F)F)cc(C(F)(F)F)c2)C(C)(C)C)cc1` [CSI107]?
**A.** IC50 [1]: 13 ± 7 µM; adverse effects during the study [2]: no adverse effects were reported; level in blood circulation 24 h after treatment [2]: evident levels of the degrader being present in blood circulation; AUCs [2]: 3,4 h x μg/mL; concentration at 8 h ([2]; ip): ~150 ng/mL and ~140 nM; Cmax ([2]; ip): 413 ng/mL and 392 nM; Tmax ([2]; ip): 2 h; half-life ([2]; ip): 5 ± 0.5 h

**Q.** Which IC50 [1] does the source give for `Cc1ncsc1-c1ccc(CNC(=O)[C@@H]2C[C@@H](O)CN2C(=O)[C@@H](NC(=O)COCCOCC(=O)NCCCOc2ccc(-c3cc(C(F)(F)F)nn3C)c(O)c2-c2cc(C(F)(F)F)cc(C(F)(F)F)c2)C(C)(C)C)cc1` [CSI135] here?
**A.** 25 ± 2 µM

**Q.** And the “adverse effects during the study” value [2]?
**A.** no adverse effects were reported

**Q.** What about the “level in blood circulation 24 h after treatment” value [2] of the same compound?
**A.** evident levels of the degrader being present in blood circulation

**Q.** And the AUCs [2]?
**A.** 6 h x μg/mL

**Q.** What about the Cmax ([2]; ip) of the same compound?
**A.** 699 ng/mL and 636 nM

**Q.** And the Tmax ([2]; ip)?
**A.** 2 h

**Q.** And the half-life ([2]; ip)?
**A.** 7.6 h
